Measurements: patent publication US20120108501A1, “Protease Inhibitors” (priority 2009, published 2012)

Assay: Pharmacokinetics of released PEGylated protease inhibitor following P.O. administration of prodrugs in rats
Type: in vivo, male Sprague-Dawley rats
Design: AUCall Mean: concentration or dose not given beside the values; C24 Mean: unit not given here
Conditions: rats (n = 4-5); for C24 Mean: concentration at 24 hours
Description: Pharmacokinetic analysis of protease inhibitors described herein was conducted. To evaluate the pharmacokinetics of PEGylated protease inhibitor conjugates with releasable lipophilic attachments, test compounds were administered to male Sprague-Dawley rats.
At various times following test article administration, serial blood samples were collected from indwelling jugular vein catheters and transferred to micro-tubes containing 7.5 μL of 20% w/v K2EDTA as an anticoagulant. Following processing of the blood samples to plasma (10 minutes at 10000 rpm, Centrifuge Model: Kubota 3500), plasma concentrations of the test article or corresponding PEGylated molecule released from the test article was measured using LC-MS/MS methods. Pharmacokinetic parameters were estimated using noncompartmental methods.

[1] = mPEG6-atazanavir in plasma after PO administration of mPEG6-ATV or of the listed prodrug
[2] = mPEG5-atazanavir in plasma after PO administration of mPEG5-ATV or of the listed prodrug
[3] = mPEG3-atazanavir in plasma after PO administration of mPEG3-ATV or of the listed prodrug

Row | Compound | AUCall Mean [1] [ng·h/mL] | Cmax Mean [1] [ng/mL] | MRT last Mean [1] [h] | Tmax Median [1] [h] | further results
1 | COCCOCCOCCOCCOCCOCCOC(=O)NC(C(=O)NC(Cc1ccccc1)C(CN(Cc1ccc(-c2ccccn2)cc1)NC(=O)C(NC(=O)OC)C(C)(C)C)OC(=O)C(CC(C)C)NC(=O)C(N)Cc1ccccc1)C(C)(C)C.Cl (stereo not drawn) [Phe-Leu-mPEG6-ATV, Phe-Leu-mPEG6-Atazanavir Hydrochloride] | 216 | 27.4 | 11.0 | 1.50 | 
2 | CCOC(CC)OC(CN(Cc1ccc(-c2ccccn2)cc1)NC(=O)C(NC(=O)OC)C(C)(C)C)C(Cc1ccccc1)NC(=O)C(NC(=O)OCCOCCOCCOCCOCCOCCOC)C(C)(C)C (mixture of isomers) [ATV-1-Ethoxy propoxy-mPEG6, atazanavir-1-ethoxypropoxy-mPEG6] | 185 | 83.0 | 5.16 | 0.750 | 
3 | CCC(=O)O[C@@H](CN(Cc1ccc(-c2ccccn2)cc1)NC(=O)[C@@H](NC(=O)OC)C(C)(C)C)[C@H](Cc1ccccc1)NC(=O)[C@@H](NC(=O)OCCOCCOCCOCCOCCOCCOC)C(C)(C)C [C2H5CO-mPEG6-ATV, mPEG6-Atazanavir Propionate] | 13.2 | 1.86 | 8.28 | 2.00 | 
4 | COCCOCCOCCOCCOCCOCCOC(=O)N[C@H](C(=O)N[C@@H](Cc1ccccc1)[C@H](CN(Cc1ccc(-c2ccccn2)cc1)NC(=O)[C@@H](NC(=O)OC)C(C)(C)C)OC(=O)[C@H](Cc1ccccc1)NC(=O)[C@@H](N)Cc1ccccc1)C(C)(C)C.Cl [Phe-Phe-mPEG6-ATV, Phe-Phe-mPEG6-Atazanavir Hydrochloride] | 279 | 27.0 | 16.2 | 2.00 | 
5 | CCOC(=O)OC(CN(Cc1ccc(-c2ccccn2)cc1)NC(=O)C(NC(=O)OC)C(C)(C)C)C(Cc1ccccc1)NC(=O)C(NC(=O)OCCOCCOCCOCCOCCOCCOC)C(C)(C)C (centres unmarked) [mPEG6-ATV-Ethyl Carbonate, mPEG6-Atazanavir Ethyl Carbonate] | 207 | 19.9 | 10.3 | 1.50 | C24 Mean [1]: 4.39
6 | CCC(=O)OC(CN(Cc1ccc(-c2ccccn2)cc1)NC(=O)C(NC(=O)OC)C(C)(C)C)C(Cc1ccccc1)NC(=O)C(NC(=O)OCCOCCOCCOCCOCCOC)C(C)(C)C (centres unmarked) [C2H5CO-mPEG5-ATV, mPEG5-Atazanavir Propionate] |  |  |  |  | AUCall Mean [2]: 39.1 ng·h/mL; Cmax Mean [2]: 6.90 ng/mL; MRT last Mean [2]: 4.04 h; Tmax Median [2]: 0.750 h
7 | COCCOCCOCCOCCOCCOCCOC(=O)N[C@H](C(=O)N[C@@H](Cc1ccccc1)[C@@H](O)CN(Cc1ccc(-c2ccccn2)cc1)NC(=O)[C@@H](NC(=O)OC)C(C)(C)C)C(C)(C)C [PEG6-ATV, mPEG6-atazanavir] | 97.6 | 26.8 | 4.93 | 0.250 | 
8 | CCCC(=O)OC(CN(Cc1ccc(-c2ccccn2)cc1)NC(=O)C(NC(=O)OC)C(C)(C)C)C(Cc1ccccc1)NC(=O)C(NC(=O)OCCOCCOCCOCCOCCOCCOC)C(C)(C)C (centres unmarked) [C3H7CO-mPEG6-ATV, mPEG6-Atazanavir Butyrate] | 6.16 | 2.22 | 1.36 | 2.00 | C24 Mean [1]: 0.00
9 | COCCOCCOCCOC(=O)N[C@H](C(=O)N[C@@H](Cc1ccccc1)[C@H](CN(Cc1ccc(-c2ccccn2)cc1)NC(=O)[C@@H](NC(=O)OC)C(C)(C)C)OCOCCOC)C(C)(C)C [mPEG3 ATV-Methyl ethyl methyl ether, mPEG3-Atazanavir Methyl Ethyl Methyl Ether] |  |  |  |  | AUCall Mean [3]: 4.10 ng·h/mL; Cmax Mean [3]: 0.951 ng/mL; MRT last Mean [3]: 1.93 h; Tmax* Median [3]: 2.00 h
